In patent US11752159B2, “Compositions and methods for suppressing or reducing systemic immune response in a subject” (THE TRUSTEES OF THE UNIVERSITY OF PENNSYLVANIA, priority 2015, dated 2023):

How the values were obtained:
C57BL6 mice = assay: High fat diet (HFD) type II diabetes mouse model, topical MC903; type: in vivo; conditions: topical three times a week every other week, vs ethanol
Procedure: FIG. 13 comprises a graph illustrating the finding that topical administration of MC903 improves overnight fasting glucose levels in mice fed with 12 weeks of high fat diet (HFD).
Topical administration of MC903 was evaluated in a model of high fat diet (HFD) type II diabetes mice. Male C57BL6 mice, which were 8 weeks at the onset of the study, were used. The mice were fed a high fat diet (45 kcal % of fat; research diet No. D12451, OpenSource Diets) for 20 weeks. During this period, the mice were topically administered ethanol or MC903 three times a week (Monday, Wednesday and Friday), every other week, for the duration of the experiment.

[1] = Toxicity (morbidity and mortality) of topical vitamin D3 analogs in mice; type: in vivo; conditions: mouse, in vivo
Procedure: VDR stimulation of keratinocytes led to TSLP production, which in certain embodiments caused increase in Treg numbers. The effects of two vitamin D3 analogs (22-Oxacalcitriol, also known as 22-OXA, and EB1089) on TSLP production and Treg numbers were evaluated. Similarly to MC903, 22-OXA and EB1089 were applied to the ear skin bilaterally at a dose of 2 nmol/ear dissolved in ethanol. After 5 days of treatment, the mice were bled and serum TSLP levels were measured. […] To avoid the toxic effect, the dose of 22-OXA and EB1089 was lowered to a point where morbidity and mortality of mice was not observed (0.4 nmol/ear for 22-OXA; 0.04 nmol/ear for EB1089). At this dose, no increase in TSLP level was detected in 22-OXA-treated mice (FIG. 9B).

[2] = tested on: thymic stromal lymphopoietin (TSLP); assay: Circulating (serum) TSLP level over time after topical MC903; type: in vivo, mice; conditions: topical MC903, treatment stopped on Day 7; fell abruptly by Day 9
Excerpt: FIG. 3A-3C comprise graphs illustrating data derived from topical treatment of B6 mice with EtOH or MC903 (2 nmol) until […]. Mice were taken at different time points post treatment initiation as indicated. FIG. 3A is a graph illustrating the percentage of Tregs out of CD4+ T cells in the spleen and blood of B6 mice over 18 days. FIG. 3B illustrates the absolute numbers of Tregs in the spleen of B6 mice over 18 days. FIG. 3C illustrates the serum thymic stromal lymphopoietin (TSLP) level change over time in B6 mice over 18 days.
Next, the kinetics of the systemic increase in Treg levels was investigated after topical MC903 treatment (treatment stopped on Day 7). The absolute number and the fraction of Tregs increased to a peak between days 6 and 9 and gradually declined thereafter in the spleen and the blood of MC903-treated mice (FIGS. 3A-3B). Circulating TSLP levels peaked at Day 6 and fell abruptly by Day 9 (FIG. 3C).

TSLP = assay: Systemic TSLP induction by topical vitamin D3 analogs (ELISA); type: in vivo, mice; conditions: topical, ear skin bilaterally, 2 nmol/ear in ethanol, after 5 days of treatment
B6 mice = assay: K/BxN serum-induced arthritis mouse model, topical MC903; type: in vivo
Procedure: FIGS. 8A-8B comprise graphs illustrating data derived from injecting B6 mice with 75 μl of serum from K/B×N mice on Days 0 and 2, and topically treating the mice with MC903 starting at Day 0. FIG. 8A illustrates the percentage of Tregs in blood of B6 mice determined on Day 8 post MC903 treatment in comparison with EtOH treatment. FIG. 8B illustrates the change of ankle thickness over time after B6 mice were injected with 75 μl of serum from K/B×N mice on Days 0 and 2, and were topically treated with MC903 starting at Day 0. Ankle thickness was measured twice a week and plotted as % maximal ankle thickness of each mouse. N=3 mice/group. Whether MC903 treatment can attenuate joint swelling in a mouse model of rheumatoid arthritis was tested in the following experiment. In this model, serum from arthritic mice (K/B×N) is injected into normal wildtype mice. […] Mice were treated topically with MC903 or EtOH (daily) and injected with arthritogenic serum (on Days 0 and 2).

Tregs = assay: Dosing schedule of chronic topical MC903: circulating Tregs and atopic dermatitis; type: in vivo, mice
Excerpt: FIG. 11 comprises a graph illustrating data derived from topically treating mice with MC903 (2 nmol on one ear) 3 times/week every other week or with MC903 (2 nmol on one ear) 3 times/week every week (alternating ears every week) for 8 weeks. The % of Tregs out of CD4+ T cells in the blood before (baseline) and after treatment (Weeks 1, 4, 6, and 8) is illustrated. N=3 mice/group. * p<0.05 by Student t-test.
FIG. 12 comprises a graph illustrating data derived from topically treating mice with EtOH or MC903 (2 nmol) 3 times/week every other week for 10 weeks. The % of Tregs out of CD4+ T cells in the blood before (Day 0) and after treatment (Day 8 and Week 10) is illustrated. N=7 mice/group.
To test whether chronic MC903 treatment results in sustained increases in Treg numbers, mice were continuously treated with MC903 for more than 2 weeks.
To avoid this local toxic effect of MC903, alternating ears were treated every week (right ear for 1 week, followed by the left ear for 1 week, then back to the right ear for 1 week, and so on). […] Without wishing to be limited by any theory, the increase in Tregs appeared to be become refractory to the chronic MC903 treatment. Thus, the protocol was modified so that a 1-week rest period (pulse treatment) was given between weekly treatments.

NOD mice = assay: NOD mouse model of type I diabetes, topical MC903; type: in vivo
Excerpt: FIGS. 5A-5B comprise graphs illustrating data derived from topical treatment of NOD mice with EtOH or MC903 (2 nmol) 3 times/week every other week at Week 5 of age; treatment was stopped at Week 15 of age. FIG. 5A illustrates the percentage of Tregs out of CD4+ T cells in the blood of NOD mice before (Day 0) and after treatment (Day 8). […] The % of mice with diabetes is plotted over the age of the mice (N=7 mice/group-EtOH; N=8 mice/group-MC903).
To test whether topical treatment with MC903 would lead to amerilioration of inflammatory disorders, it was tested whether topical application of MC903 protected a mouse against type I diabetes (T1D), using a non-obese diabetes (NOD) mouse model of diabetes. NOD mice were treated 3 times a week with MC903 on alternating ears every week.

[3] = 3 days (every other day)/week every other week

Q: Which results are given for C=C1/C(=C\C=C2/CCC[C@]3(C)[C@@H]([C@H](C)/C=C/[C@@H](O)C4CC4)CC[C@@H]23)C[C@@H](O)C[C@@H]1O [MC903, 26,27-cyclo-22-ene-1α,24S-dihydroxyvitamin D3]?
A: overnight fasting glucose levels (C57BL6 mice): improved overnight fasting glucose levels; systemic toxicity [1]: without any apparent systemic toxicity; time of peak of circulating TSLP levels [2]: 6 days; serum TSLP levels (TSLP): can induce TSLP production; joint swelling and erythema after Day 7 (B6 mice; concomitant with the elevated Treg percentages): quick reduction; circulating Treg levels (B6 mice; mice injected with arthritogenic serum, topical daily): increased; atopic inflammation, pulse treatment (Tregs; [3]): atopic inflammation was avoided; circulating Treg numbers, pulse treatment (Tregs; [3]): increased over a 10 week period; Tregs at Day 8, alternating ear protocol (Tregs; alternating ears every week, Day 8): increased systemically; circulating Tregs at Week 4 of treatment and beyond, alternating ear protocol (Tregs; alternating ears every week, no rest week): not increased; atopic dermatitis with alternating ear protocol (Tregs; alternating ears treated every week): minimal atopic dermatitis; local toxicity with chronic once/day treatment of more than 1 week (Tregs; mouse, in vivo): development of atopic dermatitis of the ear skin; circulating Treg levels (NOD mice; Day 8 post-treatment, compared to vehicle): increased; atopic dermatitis under treatment protocol (NOD mice; topical 3 times a week on alternating ears, 8 weeks): little to no evidence of atopic dermatitis; incidence of T1D (two consecutive blood glucose readings >250 mg/dl) (NOD mice; topical MC903 compared to vehicle): significantly attenuated
